From ChEMBL document CHEMBL1201862, “PubChem BioAssay data set” (2004)
Calls of active or inactive are those of the source.

How the values were obtained:
[1] = control 3'UTR Renilla luciferase suppression, dose response, counter-screen for Shn3 inhibitor project, cell-based, Clone20-Shn3RL, cherry-picked (AID 624133); assay type: functional
[2] = Shn3 3'UTR reporter inhibitors, dose response, cell-based, Clone20 osteoblasts, firefly luciferase, cherry-picked (AID 624132); assay type: functional;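 also: firefly luciferase luminescence from reporter carrying the Shn3 3'UTR in osteoblasts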
[3] = Fluorescence-based cell-based high throughput dose response assay for inhibitors of the interaction of nucleotide-binding oligomerization domain containing 2 (NOD2) and the receptor-interacting serine-threonine kinase 2 (RIPK2).; assay type: functional; details: Homo sapiens
[4] = molecular target: Photoreceptor-specific nuclear receptor (Homo sapiens, UniProt Q9Y5X4); assay type: functional, cell-based;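 also: CHO-S cells with Gal4-NCOR and VP16-NR2E3 two-hybrid luciferase reporter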
Photoreceptor-specific nuclear receptor, sequence (Q9Y5X4 whole entry, the tested form may be a part): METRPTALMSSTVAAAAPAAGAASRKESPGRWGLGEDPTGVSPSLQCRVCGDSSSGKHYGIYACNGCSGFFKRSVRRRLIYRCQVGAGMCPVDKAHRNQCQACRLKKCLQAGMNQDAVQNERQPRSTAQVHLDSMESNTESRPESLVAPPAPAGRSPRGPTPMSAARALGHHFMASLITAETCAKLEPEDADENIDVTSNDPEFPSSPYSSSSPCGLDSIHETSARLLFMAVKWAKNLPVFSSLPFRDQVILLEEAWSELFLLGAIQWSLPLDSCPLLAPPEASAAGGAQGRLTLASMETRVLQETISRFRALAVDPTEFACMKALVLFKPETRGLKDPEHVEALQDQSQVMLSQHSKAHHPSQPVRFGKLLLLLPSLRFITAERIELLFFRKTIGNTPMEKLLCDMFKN

[5] = HepG2 cell cytotoxicity, dose response, cytotoxicity control for Shn3 inhibitor project, CellTiter-Glo, cherry-picked (AID 624134); assay type: functional, cell-based
[6] = molecular target: Nuclear receptor subfamily 5 group A member 2 (Homo sapiens, UniProt O00482); assay type: functional, cell-based;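 also: HEK293T cells transfected with LRH-1 and a StAR promoter luciferase reporter; potency for inhibitors that lower LRH-1 driven reporter light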
Nuclear receptor subfamily 5 group A member 2, sequence (O00482 whole entry): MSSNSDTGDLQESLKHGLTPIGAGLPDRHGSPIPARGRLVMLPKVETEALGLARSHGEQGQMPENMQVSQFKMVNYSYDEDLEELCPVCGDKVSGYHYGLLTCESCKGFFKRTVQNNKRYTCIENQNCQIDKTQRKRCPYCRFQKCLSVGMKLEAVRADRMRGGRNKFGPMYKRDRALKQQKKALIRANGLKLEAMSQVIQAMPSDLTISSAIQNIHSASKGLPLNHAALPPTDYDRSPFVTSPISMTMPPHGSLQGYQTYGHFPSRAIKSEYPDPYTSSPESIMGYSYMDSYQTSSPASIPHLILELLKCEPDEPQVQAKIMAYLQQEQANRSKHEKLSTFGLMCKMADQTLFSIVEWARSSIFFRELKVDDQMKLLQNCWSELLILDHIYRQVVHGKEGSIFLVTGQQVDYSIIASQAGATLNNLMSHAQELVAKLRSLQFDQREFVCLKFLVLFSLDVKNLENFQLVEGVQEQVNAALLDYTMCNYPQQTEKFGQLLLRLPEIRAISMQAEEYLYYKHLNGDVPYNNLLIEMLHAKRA

[7] = StAR promoter reporter inhibition counter-screen, dose response, counter-screen for LRH-1 inverse agonist project, cell-based, luminescence, luciferase reporter (AID 651969); assay type: functional
[8] = molecular target: Steroidogenic factor 1 (Homo sapiens, UniProt Q13285); experiment: Counterscreen for inverse agonists of the liver receptor homolog-1 (LRH-1; NR5A2): Luminescence-based cell-based high throughput dose response assay to identify inverse agonists of the Steroidogenic Factor 1 Nuclear Receptor (SF1; NR5A1).; assay type: functional
Steroidogenic factor 1, sequence (Q13285 whole entry): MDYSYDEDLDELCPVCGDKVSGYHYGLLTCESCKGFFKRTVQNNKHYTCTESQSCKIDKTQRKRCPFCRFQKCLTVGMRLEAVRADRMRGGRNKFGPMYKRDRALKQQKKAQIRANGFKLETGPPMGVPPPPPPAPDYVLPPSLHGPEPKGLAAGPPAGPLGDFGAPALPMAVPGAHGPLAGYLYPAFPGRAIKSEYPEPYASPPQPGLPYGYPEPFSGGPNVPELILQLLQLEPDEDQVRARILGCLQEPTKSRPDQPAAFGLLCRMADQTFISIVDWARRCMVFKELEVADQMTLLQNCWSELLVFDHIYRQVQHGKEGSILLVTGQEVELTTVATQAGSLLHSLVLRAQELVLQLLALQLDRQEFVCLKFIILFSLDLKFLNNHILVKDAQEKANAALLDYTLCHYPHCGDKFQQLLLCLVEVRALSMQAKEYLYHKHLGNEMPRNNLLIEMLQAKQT

[9] = molecular target: T1, Apoptotic protease-activating factor 1 (Homo sapiens, UniProt O14727); experiment: SAR analysis of small molecule Activators of Apaf-1 in a Fluorescent assay.; assay type: functional; details: read-out: EC50_Mean;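 also: caspase-3 cleavage of fluorogenic Rh110 DEVD substrate downstream of apoptosome activation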
T1 sequence (O14727 whole entry): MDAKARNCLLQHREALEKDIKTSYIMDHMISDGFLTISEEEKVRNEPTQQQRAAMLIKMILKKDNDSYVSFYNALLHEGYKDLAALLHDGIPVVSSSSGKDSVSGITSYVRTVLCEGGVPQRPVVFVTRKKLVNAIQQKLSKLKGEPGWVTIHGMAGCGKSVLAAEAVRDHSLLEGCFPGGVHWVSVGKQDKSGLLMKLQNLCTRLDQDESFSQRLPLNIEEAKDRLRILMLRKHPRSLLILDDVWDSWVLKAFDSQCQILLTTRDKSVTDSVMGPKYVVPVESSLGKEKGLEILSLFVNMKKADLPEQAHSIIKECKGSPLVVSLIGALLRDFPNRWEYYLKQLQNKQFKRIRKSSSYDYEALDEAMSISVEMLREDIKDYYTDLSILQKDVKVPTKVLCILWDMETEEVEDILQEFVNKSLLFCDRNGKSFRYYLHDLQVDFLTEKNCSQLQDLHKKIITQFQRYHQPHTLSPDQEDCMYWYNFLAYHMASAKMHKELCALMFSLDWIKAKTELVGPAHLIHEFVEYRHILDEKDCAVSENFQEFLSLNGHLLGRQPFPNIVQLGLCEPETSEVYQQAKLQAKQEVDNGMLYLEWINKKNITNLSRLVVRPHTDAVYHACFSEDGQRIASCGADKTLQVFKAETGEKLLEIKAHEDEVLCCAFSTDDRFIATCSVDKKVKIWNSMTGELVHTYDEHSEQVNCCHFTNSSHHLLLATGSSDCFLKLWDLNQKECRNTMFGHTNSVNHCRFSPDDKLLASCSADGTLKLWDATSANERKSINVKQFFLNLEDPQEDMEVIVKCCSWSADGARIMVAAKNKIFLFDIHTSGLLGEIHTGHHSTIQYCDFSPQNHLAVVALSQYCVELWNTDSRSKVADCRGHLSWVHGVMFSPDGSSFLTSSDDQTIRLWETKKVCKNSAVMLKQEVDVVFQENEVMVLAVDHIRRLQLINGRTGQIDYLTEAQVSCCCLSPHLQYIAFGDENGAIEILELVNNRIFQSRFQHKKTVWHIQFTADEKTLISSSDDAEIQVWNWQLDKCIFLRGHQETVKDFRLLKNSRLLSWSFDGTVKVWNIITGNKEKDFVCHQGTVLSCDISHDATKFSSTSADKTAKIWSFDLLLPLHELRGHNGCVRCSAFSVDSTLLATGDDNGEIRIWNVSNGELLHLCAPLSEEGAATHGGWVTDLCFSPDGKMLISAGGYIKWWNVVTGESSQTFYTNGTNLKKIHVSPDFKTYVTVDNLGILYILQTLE

[10] = molecular target: T2, Low molecular weight phosphotyrosine protein phosphatase (Homo sapiens, UniProt P24666); assay type: functional; details: read-out: IC50_Mean
T2 sequence (P24666 whole entry): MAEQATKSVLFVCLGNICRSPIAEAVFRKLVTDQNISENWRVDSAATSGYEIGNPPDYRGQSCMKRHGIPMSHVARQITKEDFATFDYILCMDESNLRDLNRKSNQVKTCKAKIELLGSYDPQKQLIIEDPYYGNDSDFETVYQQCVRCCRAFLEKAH

[11] = molecular target: T2, Low molecular weight phosphotyrosine protein phosphatase; assay type: functional; details: read-out: IC50_Mean; remark: listed apart in the source

Row | SMILES | EC50 [9] | IC50 [6] | IC50 [7] | IC50 [8] | also measured
1 | CC(C)(C)NCC(=Cc1ccccc1)C(=O)c1ccccc1 |  |  |  |  | AC50 [1]: 6.44 µM (active); AC50 [2]: 4.51 µM (active); IC50 [3]: 10.4 µM (inactive); IC50 [4]: 2.91 µM (active); AC50 [5]: 11.1 µM (active)
2 | Cc1cc(=O)oc2c(C)c(OCC(=O)NC3CC(C)(C)NC(C)(C)C3)ccc12 |  | 35.9 µM (inactive) | 35.9 µM (inactive) | 35.9 µM (inactive) | 
3 | C/C(=N\Nc1cc(C(F)(F)F)ccc1Cl)c1ccncc1 |  | 26.2 µM (inactive) | 35.9 µM (inactive) | 12 µM (inactive) | 
4 | O=C(N/N=C/c1ccc(OC(=O)c2cccc(F)c2)cc1)c1cccnc1 |  |  |  |  | IC50 [10]: 14.4 µM (active); IC50 [11]: 15.4 µM (active)

More lines, main results first:

Row | EC50 [9] | SMILES | IC50 [6] | IC50 [7] | IC50 [8] | also measured
5 | > 100 µM (inactive) | CN1c2ccccc2C(C)(C)C12CC(c1ccc(F)cc1)=NO2 (stereo not given) |  |  |  | 
6 | > 100 µM (inactive) | N[C@@H](CCc1ccccc1)C(=O)O [HOMOPHENYLALANINE] |  |  |  | 
